# Experimental data from US9446087B2, “Anti-resorptive and bone building dietary supplements and methods of use” (priority 2006, dated 2016).
# Values joined by “and” are separate entries in the source; they are usually repeats but may differ in a detail not shown here. Equal values may be shown once. Marks after values point to notes of the source that are not given here.
# B1: PTH: parathyroid hormone, anabolic agent, positive control (protein, UniProt P01270 32-115, looked up)
# Parathyroid hormone: SVSEIQLMHNLGKHLNSMERVEWLRKKLQDVHNFVALGAPLAPRDAGSQRPRKKEDNVLVESHEKSLGEADKADVNVLTKAKSQ
# modifications: Parathyroid hormone
# notes: parathyroid hormone, anabolic agent, positive control
# What was measured:
# [1] = tested on: BMP-2 promoter; assay: BMP2 Promoter assay (2T3-BMP2-Luciferase cells, luciferase); type: cell-based, murine
# [2] = tested on: BMP-2 protein; assay: BMP-2 Protein Expression Assay (Hu09 cells, ELISA); type: cell-based
# Method: The cells are treated with different proteasome inhibitors for 24 hours. After incubation, the conditioned media is transferred into microcentrifuge tubes and centrifuged at 14,000 rpm for 2-3 minutes to remove cellular debris. The concentration of BMP-2 protein in the supernatant is then determined using the standard BMP-2 Elisa Kit (R&D ELISA KIT DBP200). Recombinant hBMP-2 (R&D) is used as a standard.
# [3] = tested on: BMP-2; assay: BMP-2 Gene Expression Assay (MG-63 cells, real time PCR); type: cell-based, human
# Method: It is also possible to test for BMP-2 gene expression and protein expression using assays similar to those described above for testing BMP-2 promoter activity. In particular, for gene expression, the human osteosarcoma cell line, MG-63 (ATCC# CRL-1427), is maintained in phenol-red containing MEM (as recommended by ATCC) at 37° C. and 5% CO2. Twenty-four hours prior to experimentation, 3×10^5 cells are seeded in 12-well plates in phenol-red free MEM. […] After an overnight incubation, RNA is extracted using conventional trizol/guanidine isothiocyanate based lysis. The isolated RNA was digested with RNase-free DNase I to remove any DNA contamination and then reverse transcribed to cDNA using random hexamer as well as oligo(dT) primers according to the manufacturer's instructions (Stratagene). Quantitative real time PCR is performed using FAM-labeled specific primers for BMP-2 and HEX-labeled specific primers for 18S rRNA (Invitrogen). All reactions are carried out in triplicate and the relative amount of mRNAs in treated versus untreated samples is calculated using the comparative CT method established by Applied Biosystems (2001). Gene expression changes of 2-fold or greater are considered significant.
# [4] = tested on: Neonatal murine calvaria; assay: Calvarial Assay to Measure Bone Growth; type: cell-based, Swiss white mice
# Method: Neonatal murine calvaria from 4 day old Swiss white mice are excised, placed into BGJ media (Sigma), and cut in half along the midline suture. One milliliter of BGJ media supplemented with 0.1% bovine serum albumin (BSA) is added to each well of a 12 well tissue culture plate (Costar) to which the relevant factors or vehicles are added. Each half calvaria is placed on a stainless steel grid in the above media at the media/air interface. Usually 4 bones per experimental group are used. […] Factors to be tested are added on Day 0 (the day of dissection) and media is changed at 24 and 96 hours (if a 7 day assay is required). Calvaria are maintained in humidified air (5% Co2), at 37° C. Following the period of incubation, the calvaria are then removed and fixed overnight in 10% formalin. The calvaria are then decalcified in 14% EDTA overnight and are then embedded in paraffin wax. Sections are then cut, using a standard microtome, along the midline suture to reveal the coronal suture and the region posterior to this suture. Four micrometer sections were taken initially and at two sequential […] depths. Sections are placed on coated glass slides (Superfrost plus, Fisher Scientific, Pittsburgh, Pa.) and stained with hematoxylin and eosin. The total and new bone area (expressed as mm^2), suture thickness (mm), and number of cells lining the bone surface are determined in the section posterior to the […] suture. Histomorphometric analysis is performed using the Osteomeasure System (Osteometrics INC, Atlanta, Ga.).
# [5] = tested on: Female, Sprague Dawley rats; assay: In Vivo Study to Measure Bone Growth - histomorphological measurements; parameters: species or system rat; details: positive control, 50 μg/kg (10 μg/200 g)/3 × per week; 35 days; vs placebo group
# Method: Three different formulas were tested in an in vivo study involving female, intact rats, aged approximately 12-14 weeks, with approximate body weights between 200-250 grams. Formula 1 included dosages of quercetin anhydrate and licorice at 250 mg quercetin:250 mg licorice ethanol extract and 500 mg quercetin:500 mg licorice ethanol extract. Formula 2 included dosages of quercetin anhydrate and licorice at 250 mg quercetin:125 mg licorice ethanol extract; 500 mg quercetin:250 mg licorice ethanol extract; and 1000 mg quercetin:500 mg licorice ethanol extract. Formula 3 included dosages of quercetin and licorice at 1000 mg quercetin:200 mg licorice ethanol extract. The study lasted 35 days. Eight separate groups of rats were tested with 15 rats in each group. Two of the eight groups of rats tested were control groups. One was a placebo control group and the other group received 50 μg/kg (10 μg/200 g)/3× per week parathyroid hormone. Parathyroid hormone, known as an anabolic agent, served as a positive control. See, e.g., Turner et al., “Disuse in adult male rats attenuates the bone anabolic response to a therapeutic dose of parathyroid hormone.” J. Appl Physiol. 2006. […]
# (§1) The effectiveness of the formulas on bone formation was assessed by outcome measurements that included biomechanical measurement (to assess bone strength and function information), micro-CT (to analyze virtual bone quality and function information), and histomorphology measurement (to analyze bone quality and functional information). […] These measurements were determined after 35 days of treatment.
# Six animals from each group were sacrificed on day 35 following treatment. […] To determine the effect of the different formulas on bone formation, trabecula bone volume, trabecular cells number and trabecular separation were assessed by histomorphology technique. […]
# Bone mineral apposition rate (MARs), also reported by Table 8, was determined by measuring the mean interlabel distance divided by the time interval (5 days) between the two fluororchromes administered. […]
# [6] = tested on: Female, Sprague Dawley rats; assay: In Vivo Study to Measure Bone Growth - micro-CT measurements; parameters: species or system rat; details: positive control, 50 μg/kg (10 μg/200 g)/3 × per week; 35 days; vs placebo group
# Method: Three different formulas were tested in an in vivo study involving female, intact rats, aged approximately 12-14 weeks, with approximate body weights between 200-250 grams. Formula 1 included dosages of quercetin anhydrate and licorice at 250 mg quercetin:250 mg licorice ethanol extract and 500 mg quercetin:500 mg licorice ethanol extract. Formula 2 included dosages of quercetin anhydrate and licorice at 250 mg quercetin:125 mg licorice ethanol extract; 500 mg quercetin:250 mg licorice ethanol extract; and 1000 mg quercetin:500 mg licorice ethanol extract. Formula 3 included dosages of quercetin and licorice at 1000 mg quercetin:200 mg licorice ethanol extract. The study lasted 35 days. Eight separate groups of rats were tested with 15 rats in each group. Two of the eight groups of rats tested were control groups. One was a placebo control group and the other group received 50 μg/kg (10 μg/200 g)/3× per week parathyroid hormone. Parathyroid hormone, known as an anabolic agent, served as a positive control. See, e.g., Turner et al., “Disuse in adult male rats attenuates the bone anabolic response to a therapeutic dose of parathyroid hormone.” J. Appl Physiol. 2006. Vol. 101:881-886, the entire contents of which are incorporated herein by reference.
# Table 7 below indicates the formula given to each of the 8 test groups. The dosages in Table 7 are based on the recommended human daily dosages. FDA dose conversion formula (Human equivalent dose (HED, mg/kg)=rat dose in mg/kg×(rat weight in kg/human weight in kg)^0.33) was used to convert the human dose to the rat dose. HED=rat NOAEL×(W-rat/W-human)^(1-b), b=0.67.
# Female, Sprague Dawley rats were used (200-250 gm each, ˜12-14 weeks old). Animals were fed at 15 gm/day, which included either a placebo diet or one of the formulas listed above, for a period of 35 days from the beginning of the experiment. Chow was made available each morning to the rats at the rate of 15 grams/rat/day. The rats were allowed free access to water and housed in appropriate cages for the entire experiment. Unrestricted activity was allowed during the entire experiment, which lasted 35 days.
# as §1, with “treatment. […]” for “treatment.”
# Obtaining information from a wide range of parameters such as bone mineral density (BMD), bone volume (% bone volume/total volume), trabecular number, and trabecular separation is critical for bone structure assessment quantitatively and qualitatively. […]
# [7] = tested on: Female, Sprague Dawley rats; assay: In Vivo Study to Measure Bone Growth - biomechanical measurements; parameters: species or system rat; details: positive control, 50 μg/kg (10 μg/200 g)/3 × per week; 35 days; vs placebo group
# Method: Three different formulas were tested in an in vivo study involving female, intact rats, aged approximately 12-14 weeks, with approximate body weights between 200-250 grams. Formula 1 included dosages of quercetin anhydrate and licorice at 250 mg quercetin:250 mg licorice ethanol extract and 500 mg quercetin:500 mg licorice ethanol extract. Formula 2 included dosages of quercetin anhydrate and licorice at 250 mg quercetin:125 mg licorice ethanol extract; 500 mg quercetin:250 mg licorice ethanol extract; and 1000 mg quercetin:500 mg licorice ethanol extract. Formula 3 included dosages of quercetin and licorice at 1000 mg quercetin:200 mg licorice ethanol extract. The study lasted 35 days. […]
# as §1
# Besides bone mass and bone volume evaluation, bone strength was examined mechanically using two different parameters. One parameter measured the maximum force needed to fracture the bone and the other determined the stiffness (the elasticity) of bone. […]
molecule,measurement,setting,value
"O=c1c(O)c(-c2ccc(O)c(O)c2)oc2cc(O)cc(O)c12 [Q, Quercetin]",BMP2 Promoter assay (ratio to control),[1]; 0.05 μg/ml,1.00 FOLD
same,BMP2 Promoter assay (ratio to control),[1]; 0.1 μg/ml,1.10 FOLD
same,BMP2 Promoter assay (ratio to control),[1]; 0.2 μg/ml,1.10 FOLD
same,BMP2 Promoter assay (ratio to control),[1]; 0.4 μg/ml,1.00 FOLD
same,BMP2 Promoter assay (ratio to control),[1]; 0.8 μg/ml,1.15 FOLD
same,BMP2 Promoter assay (ratio to control),[1]; 1.6 μg/ml,1.30 FOLD
same,BMP2 Promoter assay (ratio to control),[1]; 3.2 μg/ml,1.80 FOLD
same,BMP2 Promoter assay (ratio to control),[1]; 6.3 μg/ml,2.30 FOLD
same,BMP2 Promoter assay (ratio to control),[1]; 12.5 μg/ml,2.90 FOLD
same,BMP2 Promoter assay (ratio to control),[1]; 25 μg/ml,3.60 FOLD
same,BMP2 Promoter assay (ratio to control),[1]; 50 μg/ml,4.80 FOLD
same,BMP2 Promoter assay (ratio to control),[1]; 100 μg/ml,5.20 FOLD
same,BMP-2 Protein Expression,[2]; 1 μg/ml,2.0 FOLD
same,BMP-2 Protein Expression,[2]; 10 μg/ml,4.6 FOLD
same,BMP-2 Protein Expression,[2]; 100 μg/ml,2.2 FOLD
same,BMP-2 Expression (fold change),[3]; 0.1 μg/ml,No change (−1.06) fold change
same,BMP-2 Expression (fold change),[3]; 1 μg/ml,2 fold change and 2.03 fold change
same,BMP-2 Expression (fold change),[3]; 5 μg/ml,2.51 ± 0.14 fold change
same,Fold Change in Gene Expression,[3]; 10 μg/ml,2.6 × increase
same,BMP-2 Expression (fold change),[3]; 20 μg/ml,4.61 ± 0.07 fold change
same,BMP-2 Expression (fold change),[3]; 100 μg/ml,14 fold change
same,Calvarial Assay Results - Bone Formation Stimulated by Extract Combinations,[4]; 0.2 ug/ml,6.90 ± 0.56 mm^2 × 10^−3
same,Calvarial Assay Results - Bone Formation Stimulated by Extract Combinations,[4]; 0.7 ug/ml,10.30 ± 0.78^a mm^2 × 10^−3
same,Calvarial Assay Results - Bone Formation Stimulated by Extract Combinations,[4]; 1 ug/ml,13.70 ± 3.20^a mm^2 × 10^−3
same,Calvarial Assay Results- Bone formation,[4]; 1 μg/ml,7.57 ± 1.52 mm^2 × 10^−3
same,Calvarial Assay Results - Bone Formation Stimulated by Extract Combinations,[4]; 8.3 ug/ml,0.10 ± 0.10 mm^2 × 10^−3
same,Calvarial Assay Results- Bone formation,[4]; 10 μg/ml,13.41 ± 2.50^a mm^2 × 10^−3
same,Calvarial Assay Results - Bone Formation Stimulated by Extract Combinations,[4]; 14.3 ug/ml,0.10 ± 0.12 mm^2 × 10^−3
same,Calvarial Assay Results- Bone formation,[4]; 100 μg/ml,13.55 ± 1.47^a mm^2 × 10^−3
CCC(C)(C)C(=O)O[C@H]1C[C@@H](C)C=C2C=C[C@H](C)[C@H](CC[C@@H]3C[C@@H](O)CC(=O)O3)[C@H]21 [Simvastatin],Calvarial Assay Results- Bone formation,"[4]; 0.25 μM, positive control",7.45 ± 1.34 mm^2 × 10^−3
same,Calvarial Assay Results- Bone formation,"[4]; 0.5 μM, positive control",9.50 ± 1.00 mm^2 × 10^−3
same,Calvarial Assay Results- Bone formation,"[4]; 1 μM, positive control",12.5 ± 1.00 mm^2 × 10^−3
B1,Trabecular Separation,[5],−38.30%
same,Trabecular thickness,[5],7.35%
same,reduction in trabecular separation,[5],38.30%
same,% Bone Volume/ Total Volume,[6],32%^a
same,Bone Mineral Density (BMD),[6],86%^a
same,Trabecular Number (N/6 mm^2),[6],25%^a
same,Trabecular separation (mm),[6],−28%^a
same,Bone Stiffness,[7],0.0%
same,Maximum Force Required to Fracture Bones,[7],0.0%
